One may read the GI50 as the concentration at which growth is held to half of that of the control. By Kd is commonly meant a measure of binding affinity in units of concentration. Low readings indicate a tighter complex, high ones a looser complex.

The record followed here is patent US20260062422A1 (Halda Therapeutics OpCo, Inc., priority 2022, published 2026).

Test [1] in a line: Cellular growth inhibition, T-Rex 293 SC cells with doxycycline (progesterone receptor isoform B induced), Example 45. The test is classed as cell-based. To be noted: progesterone receptor isoform B induced with 10 ng/mL doxycycline, 72 hours, CellTiter-Glo 2.0, Table 11. The protocol:
(§1) The following types of cells were prepared for this experiment: (i) a T-Rex 293 cell line having increased expression of progesterone receptor isoform B protein due to exposure to doxycycline and (ii) a T-Rex 293 cell line lacking increased expression of progesterone receptor isoform B protein. Ability of the test compounds to inhibit proliferation of the foregoing cell types was evaluated according to the procedures set forth below.
(§2) The doxycycline-inducible progesterone receptor isoform B protein expressing cell line was established using the following protocol: T-Rex 293 cells were purchased from Invitrogen (Cat #R71007) and transfected using Lipofectamine 2000 with the wild-type progesterone receptor B protein sequence cloned into the pcDNA4/TO vector. Transfected cells were selected using 400 μg/mL Zeocin (Invitrogen Cat #R25001). Following selection, single clones were raised and maintained in Dulbecco's Modified Eagle Medium (DMEM) supplemented with 10% w/w Tetracycline-free fetal bovine serum (FBS) and 250 μg/mL Zeocin. Clones were analyzed for expression of progesterone receptor isoform B protein in the presence and absence of 10 ng/mL doxycycline (Sigma Cat #D9891), and a single doxycycline-inducible clone (hereinafter “SC”) was selected for use in downstream assays.
(§3) The SC cells were seeded on poly-D-lysine coated, black clear-bottom 384-well plates at 2500/well, in 25 μL Phenol Red Free Dulbecco's Modified Eagle Medium (DMEM) supplemented with 10% w/w charcoal-dextran treated fetal bovine serum (FBS) and 1% w/w pen-strep, with or without 10 ng/mL doxycycline. Pen-Strep is a commercially available mixture of penicillin G and streptomycin, which is used in mammalian cell culture media to prevent bacterial contamination. Phenol Red Free Dulbecco's Modified Eagle Medium (DMEM) supplemented with 10% w/w charcoal-dextran treated fetal bovine serum (FBS) and 1% w/w pen-strep, with or without 10 ng/mL doxycycline is herein referred to as Treatment Medium. Following seeding of cells in the plates, the plates were spun at 300×g for 30 seconds, then equilibrated to room temperature for 30 minutes, and then deposited in a humidified tissue culture incubator maintained at 37° C. with 5% CO2.
(§4) At 24 hours after seeding of the cells, dilutions of test compound were prepared in DMSO and dissolved in Treatment Medium, to achieve a final DMSO concentration of 0.5% w/w, thereby providing the Test Compound Solution. A 25 μL aliquot of the Test Compound Solution was added to cells in the well plates. An equal volume of a solution containing DMSO and Treatment Medium was used as a negative control. Following treatment of cells with Test Compound Solution or said equal volume of a solution containing DMSO and Treatment Medium, the plates were spun at 300×g for 30 seconds, and then left in an incubator for 72 hours.
(§5) At the end of the treatment duration, cell viability was quantified with CellTiter-Glo 2.0 reagent (Promega Cat #G9243). For this purpose, plates were equilibrated to room temperature for 30 minutes, and then 25 μL of CellTiter-Glo 2.0 reagent was added to cells in the plate wells. Plates were then agitated on a shaker for two minutes at 500 rpm and subsequently incubated at room temperature for 10 minutes. Following incubation, the plates were spun at 3000×g for 30 seconds, then sealed with an optical adhesive cover, and luminescence readings were measured with an EnVision Plate Reader (Perkin Elmer).
(§6) Data was normalized using zero luminescence for baseline. A four-parameter non-linear regression curve fit was applied to dose-response data in GraphPad Prism data analysis software to determine the half-maximal growth inhibitory concentration (GI50) for each test compound.

Test [2] deals with T-Rex 293 cell line SC cells lacking increased expression of progesterone receptor isoform B protein. The test can be described thus: Cellular growth inhibition, T-Rex 293 SC cells without doxycycline, Example 45. The test is classed as cell-based. To be noted: T-Rex 293 SC cells not exposed to doxycycline, 72 hours treatment, CellTiter-Glo 2.0. As for the experimental part:
as §1, §2, §3, §4, §5, §6
(In general: Cellular ATP, detected with luciferase, serves as a proxy for viable cell number.)

In a further test the target is T1, BRD4-BD1 (Homo sapiens, UniProt O60885).
T1 construct: made in house; host or cells: T7 phage grown in an E. coli host derived from BL21
The test can be described thus: bromoKdELECT assay for binding affinity to BRD4-BD1. The settings on record: Table 6. The protocol:
Compounds were tested using a bromoKdELECT assay. T7 phage strains displaying bromodomains were grown in parallel in 24-well blocks in an E. coli host derived from the BL21 strain. E. coli were grown to log-phase and infected with T7 phage from a frozen stock (multiplicity of infection=0.4) and incubated with shaking at 32° C. until lysis (90-150 minutes). The lysates were centrifuged (5,000×g) and filtered (0.2 μm) to remove cell debris. Streptavidin-coated magnetic beads were treated with biotinylated small molecule or acetylated peptide ligands for 30 minutes at room temperature to generate affinity resins for bromodomain assays. The liganded beads were blocked with excess biotin and washed with blocking buffer (SeaBlock (Pierce), 1% BSA, 0.05% Tween 20, 1 mM DTT) to remove unbound ligand and to reduce nonspecific phage binding. Binding reactions were assembled by combining bromodomains, liganded affinity beads, and test compounds in 1× binding buffer (17% SeaBlock, 0.33×PBS, 0.04% Tween 20, 0.02% BSA, 0.004% Sodium azide, 7.4 mM DTT). Test compounds were prepared as 1000× stocks in 100% DMSO. Kds were determined using an 11-point 3-fold compound dilution series with one DMSO control point. All compounds for Kd measurements are distributed by acoustic transfer (non-contact dispensing) in 100% DMSO. The compounds were then diluted directly into the assays such that the final concentration of DMSO was 0.09%. All reactions performed in polypropylene 384-well plates. Each was a final volume of 0.02 ml. The assay plates were incubated at room temperature with shaking for 1 hour and the affinity beads were washed with wash buffer (1×PBS, 0.05% Tween 20). The beads were then resuspended in elution buffer (1×PBS, 0.05% Tween […] non-biotinylated affinity ligand) and incubated at room temperature with shaking for 30 minutes. The bromodomain concentration in the eluates was measured by qPCR.

Some results are limits rather than exact numbers.

Consider `Cc1sc2c(c1C)C(c1ccc(Cl)cc1)=N[C@@H](CC(=O)NCCOCCOCCOCCOCCN(C)c1ncc(C(=O)N[C@H]3C(C)(C)[C@H](Oc4ccc(C#N)c(Cl)c4)C3(C)C)cn1)c1nnc(C)n1-2` [Compound I-3, N-((1r,3r)-3-(3-chloro-4-cyanophenoxy)-2,2,4,4-tetramethylcyclobutyl)-2-((1-((S)-4-(4-chlorophenyl)-2,3,9-trimethyl-6H-thieno[3,2-f][1,2,4]triazolo[4,3-a][1,4]diazepin-6-yl)-2-oxo-6,9,12,15-tetraoxa-3-azaheptadecan-17-yl)(methyl)amino)pyrimidine-5-carboxamide], for which the GI50 in test [1] was under 500 nM; in test [2], 1500 to 3000 nM. This molecule came in with a dissociation constant Kd at BRD4-BD1 of 50 to 500 nM. `Cc1sc2c(c1C)C(c1ccc(Cl)cc1)=N[C@@H](CC(=O)NCCOC1CCN(c3ncc(C(=O)N[C@H]4C(C)(C)[C@H](Oc5ccc(C#N)c(Cl)c5)C4(C)C)cn3)CC1)c1nnc(C)n1-2` [Compound I-6]: the GI50 in test [1] and in test [2] was under 500 nM throughout. At BRD4-BD1, the Kd is over 2500 nM. `Cc1sc2c(c1C)C(c1ccc(Cl)cc1)=N[C@@H](CC(=O)NCCOCCOCCOC1CCN(c3ncc(C(=O)N[C@H]4C(C)(C)[C@H](Oc5ccc(C#N)c(Cl)c5)C4(C)C)cn3)CC1)c1nnc(C)n1-2` [Compound I-7]: the GI50 in test [1] and in test [2] was under 500 nM each time. On BRD4-BD1, this molecule showed a Kd of 500 to 2500 nM.

In the case of `Cc1sc2c(c1C)C(c1ccc(Cl)cc1)=N[C@@H](CC(=O)NCCOCCOCCOCCOCCOC1CCN(c3ncc(C(=O)N[C@H]4C(C)(C)[C@H](Oc5ccc(C#N)c(Cl)c5)C4(C)C)cn3)CC1)c1nnc(C)n1-2` [Compound I-8], the GI50 in test [1] was under 500 nM; in test [2] it was 500 to 1500 nM. Moreover, the Kd at BRD4-BD1 fell in the range of 500 to 2500 nM. `Cc1sc2c(c1C)C(c1ccc(Cl)cc1)=N[C@H](CC(=O)NCCOCCOCCOCCOCCOCCOCCOC1CCN(c3ncc(C(=O)N[C@H]4C(C)(C)[C@H](Oc5ccc(C#N)c(Cl)c5)C4(C)C)cn3)CC1)c1nnc(C)n1-2` [Compound I-9]: the figures for the GI50 in test [1] and in test [2] were under 500 nM and 1500 to 3000 nM, respectively. The equilibrium dissociation constant (Kd) at BRD4-BD1 was in the range of 500 to 2500 nM. The matching figures for `CCNC(=O)C[C@@H]1N=C(c2ccc(OCCOC3CCN(c4ncc(C(=O)N[C@H]5C(C)(C)[C@H](Oc6ccc(C#N)c(Cl)c6)C5(C)C)cn4)CC3)cc2)c2c(sc(C)c2C)-n2c(C)nnc21` [Compound I-60, N-((1r,3r)-3-(3-chloro-4-cyanophenoxy)-2,2,4,4-tetramethylcyclobutyl)-2-(4-(2-(4-((S)-6-(2-(ethylamino)-2-oxoethyl)-2,3,9-trimethyl-6H-thieno[3,2-f][1,2,4]triazolo[4,3-a][1,4]diazepin-4-yl)phenoxy)ethoxy)piperidin-1-yl)pyrimidine-5-carboxamide]: under 500 nM, under 500 nM and 50 to 500 nM.

`CCNC(=O)C[C@@H]1N=C(c2ccc(CCCC3CCN(c4ncc(C(=O)N[C@H]5C(C)(C)[C@H](Oc6ccc(C#N)c(Cl)c6)C5(C)C)cn4)CC3)cc2)c2c(sc(C)c2C)-n2c(C)nnc21` [Compound I-95] came in with a Kd at BRD4-BD1 of over 2500 nM. Still for that read-out and setting: the figure for `Cc1sc2c(c1C)C(c1ccc(CCCOC3CCN(c4ncc(C(=O)N[C@H]5C(C)(C)[C@H](Oc6ccc(C#N)c(Cl)c6)C5(C)C)cn4)CC3)cc1)=N[C@@H](CC(=O)NC(C)C)c1nnc(C)n1-2` [Compound I-100] is over 2500 nM; for `CCN(C)C(=O)C[C@@H]1N=C(c2ccc(CCCOC3CCN(c4ncc(C(=O)N[C@H]5C(C)(C)[C@H](Oc6ccc(C#N)c(Cl)c6)C5(C)C)cn4)CC3)cc2)c2c(sc(C)c2C)-n2c(C)nnc21` [Compound I-101] it is over 2500 nM; for `Cc1sc2c(c1C)C(c1ccc(CCCOC3CCN(c4ncc(C(=O)N[C@H]5C(C)(C)[C@H](Oc6ccc(C#N)c(Cl)c6)C5(C)C)cn4)CC3)cc1)=N[C@@H](CC(=O)NC1CC1)c1nnc(C)n1-2` [Compound I-102] it is 500 to 2500 nM.

With `CCNC(=O)C[C@@H]1N=C(c2ccc(N3CCN(CC4CCN(c5ncc(C(=O)N[C@H]6C(C)(C)[C@H](Oc7ccc(C#N)c(Cl)c7)C6(C)C)cn5)CC4)CC3)cc2)c2c(sc(C)c2C)-n2c(C)nnc21` [Compound I-105, N-[3-(3-chloro-4-cyano-phenoxy)-2,2,4,4-tetramethyl-cyclobutyl]-2-[4-[[4-[4-[(9S)-9-[2-(ethylamino)-2-oxo-ethyl]-4,5,13-trimethyl-3-thia-1,8,11,12-tetrazatricyclo[8.3.0.02,6]trideca-2(6),4,7,10,12-pentaen-7-yl]phenyl]piperazin-1-yl]methyl]-1-piperidyl]pyrimidine-5-carboxamide], the GI50 in test [1] and in test [2] was under 500 nM in each case. On BRD4-BD1, this molecule registered a Kd of 50 to 500 nM. On to `CCNC(=O)C[C@@H]1N=C(c2ccc(N(C)CC3CN(c4ncc(C(=O)N[C@H]5C(C)(C)[C@H](Oc6ccc(C#N)c(Cl)c6)C5(C)C)cn4)C3)cc2)c2c(sc(C)c2C)-n2c(C)nnc21` [Compound I-107], for which the Kd on BRD4-BD1 lay within 50 to 500 nM. Still for that read-out and setting: to `CCNC(=O)C[C@@H]1N=C(c2ccc(N(C)CCN3CCN(c4ncc(C(=O)N[C@H]5C(C)(C)[C@H](Oc6ccc(C#N)c(Cl)c6)C5(C)C)cn4)CC3)cc2)c2c(sc(C)c2C)-n2c(C)nnc21` [Compound I-108] belongs 50 to 500 nM; to `CCNC(=O)C[C@@H]1N=C(c2ccc(N3CCC(N(C)C4CCN(c5ncc(C(=O)N[C@H]6C(C)(C)[C@H](Oc7ccc(C#N)c(Cl)c7)C6(C)C)cn5)CC4)CC3)cc2)c2c(sc(C)c2C)-n2c(C)nnc21` [Compound I-113], under 50 nM; to `CCNC(=O)C[C@@H]1N=C(c2ccc(N3CCC(OC4CCN(c5ncc(C(=O)N[C@H]6C(C)(C)[C@H](Oc7ccc(C#N)c(Cl)c7)C6(C)C)cn5)CC4)CC3)cc2)c2c(sc(C)c2C)-n2c(C)nnc21` [Compound I-114], 50 to 500 nM. Still for that read-out and setting: the figure for `CCNC(=O)C[C@@H]1N=C(c2ccc(N(C)C3CN(CC4CCN(c5ncc(C(=O)N[C@H]6C(C)(C)[C@H](Oc7ccc(C#N)c(Cl)c7)C6(C)C)cn5)CC4)C3)cc2)c2c(sc(C)c2C)-n2c(C)nnc21` [Compound I-119] is 50 to 500 nM.
